In patent US20130011376A1, “Methods for Enhancing Natural Killer Cell Proliferation and Activity” (GAMIDA CELL LTD., priority 2009, published 2013):

Key:
irradiated NOD/SCID mice = assay: In-vivo homing and engraftment of cultured human NK cells; conditions: 4 days post infusion
Experimental: NK cells were expanded with or without 2.5 mM or 5.0 mM nicotinamide, as described above. After 2-3 weeks in culture, similar numbers (15×10^6) of cells were infused into irradiated (350 Rad) NOD/SCID mice. Mice were sacrificed 4-days post infusion. Spleen, bone marrow and peripheral blood were analyzed for the homing and engraftment of human NK (CD45+CD56+) cells using […], in order to distinguish them from endogenous cells. Engraftment is expressed as the % of NK cells having the transplanted lineage (CD45+CD56+) using anti-human specific antibodies from the total number of mouse endogenous cells identified in the tissue.
Irradiated (350 Rad) NOD/SCID mice received 15×10^6 cells from human peripheral blood NK (T-cell depleted) cultures maintained for up to 3 weeks with (NAM 2.5 mM and NAM 5 mM) or without (NAM 0) nicotinamide. Upon sacrifice of the mice 4 days post infusion, samples of spleen, bone marrow and peripheral blood were evaluated by FACS for the presence of human NK cells (CD56+CD45+) using human specific Abs.

[1] = tested on: CD3+ T cells and CD3+CD56+ NKT cells; assay: T and NKT cell fractions in peripheral blood NK cell cultures (FACS); format: cell-based, human; conditions: increasing nicotinamide concentration (2.5 to 7.5 mM), three weeks
Experimental: Purified CD56+ or CD56+CD3− cells from total nuclear or mononuclear cells or from the fraction depleted from CD34+ or CD133+ cells were cultured in culture bags, T-Flasks or 24 well plates at a concentration of 1-100×10^4 cells/ml in MEMα/10% FCS or CellGro SCGM (Cell Genix)/5% Human Serum/LiforCell® FBS Replacement (Lifeblood Products) containing the following human recombinant cytokines:, interleukin-2 (IL-2) (5-50 ng/ml), interleukin-15 (IL-15), FLT-3 or SCF or FLT3 and SCF or IL-2 and IL-15 or IL-2 only (Perpo Tech, Inc., Rocky Hill, N.J., USA), with or without nicotinamide, and incubated at 37° C. in a humidified atmosphere of 5% CO2 in air. The cultures were topped up once or twice a week with the same volume of fresh medium containing growth factors with or without nicotinamide. […]
The cells were washed with a PBS solution containing 1% BSA, and stained (at 4° C. for 30 min) with fluorescein isothiocyanate (FITC)- or phycoerythrin (PE)-conjugated antibodies or allophycocyanin (APC). The cells were then washed in the above buffer and analyzed using a FACScalibur® flow cytometer (Becton Dickinson, San Jose, Calif., USA). […] Emission of 10^4 cells was measured using logarithmic amplification, and analyzed using the CellQuest software (Becton Dickinson). Cells stained with FITC, PE and APC-conjugated isotype control antibodies were used to determine background fluorescence. […]

[2] = tested on: cord blood NK cells (CD56+); assay: Ex-vivo proliferation of purified cord blood CD56+ NK cells cultured with cytokines and nicotinamide; format: cell-based, human; conditions: for proliferation of NK cells relative to growth factors (cytokines) alone: 14 days
Experimental: Cells were obtained from umbilical cord blood after normal full-term delivery (informed consent was given). Samples were collected and frozen within 24 hours postpartum. Briefly, cord blood was collected by gravity from delivered placentas, the leukocyte-rich fraction was separated by density gradient centrifugation, cells mixed with DMSO (10%) and then frozen at −80° C. Prior to use, the cells were thawed in Dextran buffer (Sigma, St. Louis, Mo., USA) containing 2.5% human serum albumin (HSA) (Bayer Corp. Elkhart, Ind., USA), and the cryoprotectant removed.
Cord blood (CB), bone marrow (BM) or peripheral blood (PB) cells were layered on a Ficoll-Hypaque gradient (1.077 g/mL; Sigma), and centrifuged at 800×g for 30 minutes for separation of the mononuclear cells. The cells in the interface layer were collected and washed three times in phosphate-buffered saline (PBS) (Biological Industries, Israel) containing 0.5% HSA. To purify the CD56+ cells, the mononuclear cell fraction was subjected to two cycles of immunomagnetic bead separation, using a “MiniMACS or CliniMACS CD56 progenitor cell isolation kit” (Miltenyi Biotec Bergisch, Gladbach, Germany), according to the manufacturer's recommendations. Briefly, CD56+ cells are reacted with CD56+ specific magnetic immunobeads, separated and with a magnetic separator, and purified from unbound cells by washing. The purity of the CD56+ population thus obtained is approximately 92%, as evaluated by flow cytometry.
(§1) 2. Purified CD56+ or CD56+CD3− cells from total nuclear or mononuclear cells or from the fraction depleted from CD34+ or CD133+ cells were cultured in culture bags, T-Flasks or 24 well plates at a concentration of 1-100×10^4 cells/ml in MEMα/10% FCS or CellGro SCGM (Cell Genix)/5% Human Serum/LiforCell® FBS Replacement (Lifeblood Products) containing the following human recombinant cytokines:, interleukin-2 (IL-2) (5-50 ng/ml), interleukin-15 (IL-15), FLT-3 or SCF or FLT3 and SCF or IL-2 and IL-15 or IL-2 only (Perpo Tech, Inc., Rocky Hill, N.J., USA), with or without nicotinamide, and incubated at 37° C. in a humidified atmosphere of 5% CO2 in air. The cultures were topped up once or twice a week with the same volume of fresh medium containing growth factors with or without nicotinamide. Eventually cultures can be supplemented once or several times a week with IL-2 and or IL-2 and IL-15. To estimate the number of cells in culture, cell samples were stained with trypan blue for counting. At various time points, samples were taken for FACS analysis to assay the relative fractions of NK cells, CD56+CD3−, CD56+CD3+, CD34+CD56+, CD56+CD16+ and/or CD56+ NKG2A cells.
In order to calculate the number of NK cells on day 0, the total number of cells seeded on day 0 was multiplied by the percent of CD56+/CD3− cells measured by the FACS on day 0.
To determine total number of cells on day 7, 14 and 21, the cell count/ml was multiplied by the volume of the culture medium. In order to determine the number of NK cells in culture, the total number of cells in culture was multiplied by the percent of CD56+/CD3− cells measured with the FACS on days 7, 14 or 21. To measure fold expansion, total number of NK cells on days 7, 14 and 21 was divided by total number of NK cells seeded in culture on day-0.

[3] = tested on: cord-blood derived NK cells; assay: Expression of CXCR4, CD49e and CD62L receptors on cultured cord blood NK cells (FACS); format: cell-based, human; conditions: 2.5 or 5 mM nicotinamide, three weeks, vs cytokines only
Experimental: as §1
The cells were washed with a PBS solution containing 1% BSA, and stained (at 4° C. for 30 min) with fluorescein isothiocyanate (FITC)- or phycoerythrin (PE)-conjugated antibodies or allophycocyanin (APC). The cells were then washed in the above buffer and analyzed using a FACScalibur® flow cytometer (Becton Dickinson, San Jose, Calif., USA). The cells were passed at a rate of up to 1000 cells/second, using a 488 nm or 661 nm argon laser beam as the light source for excitation. Emission of 10^4 cells was measured using logarithmic amplification, and analyzed using the CellQuest software (Becton Dickinson). Cells stained with FITC, PE and APC-conjugated isotype control antibodies were used to determine background fluorescence.

NC(=O)c1cccnc1 [nicotinamide]
localization and engraftment, higher vs lower nicotinamide concentration (irradiated NOD/SCID mice; 5 mM compared with 2.5 mM): stronger effect
localization and engraftment of human NK cells (CD56+CD45+) in spleen, bone marrow and peripheral blood (irradiated NOD/SCID mice; 15x10^6 cells cultured with 2.5 mM or 5 mM nicotinamide): increased localization and engraftment
fraction of CD3+ T cells [1]: reduction
fraction of CD3+CD56+ NKT cells [1]: reduction
NK cell proliferation relative to growth factors (cytokines) alone ([2]; 0.5 mM to 5 mM nicotinamide, three weeks culture): up to 2.5 times
proliferation of NK cells relative to growth factors (cytokines) alone ([2]; 2.5 mM nicotinamide, IL-2 and IL-15): greater than 4 times
proliferation of NK cells relative to growth factors (cytokines) alone ([2]; 5 mM nicotinamide, compared with 2.5 mM): even greater
expansion of cord blood CD56+ NK cultures vs cytokine-only controls ([2]; 1 to 7.5 mM nicotinamide, up to 3 weeks, Flt-3, IL-2 and IL-15): dose-dependent increase in the expansion
proliferation of NK cells ([2]; all concentrations tested, as early as 14 days of culture): significantly enhanced proliferation
expression of CD49e (adhesion receptor) [3]: elevated expression
expression of CD62L (trafficking receptor) [3]: strongly enhanced expression
expression of CXCR4 (migratory receptor) [3]: strongly enhanced expression
